“And” between values parts separate entries of the source, which are not always exact repeats. Equal values may be shown once. Read-outs that look alike come from different tables or passages of the source.
How the values were obtained:
human hair follicles = experiment: Ratio of hair follicle telogen in DHT-treated cultured hair follicles (visual evaluation); settings: for Telogen ratio (%): 6 days
Protocol: (§1) The ratio of hair follicle telogen and the expression level of hair follicle cell proliferation-related factor proteins depending on whether 3-hydroxypropionic acid was applied or not were evaluated according to the following methods.
(§2) The human hair follicles or scalp tissues provided for research purposes (IRB No. 4-2023-1052; Institutional Review Board, Severance Medical Center, Yonsei University College of Medicine) were washed several times with PBS to remove residual impurities, and randomly divided into each group. The hair follicles and scalp tissues were cultured in Williams' Medium E (Sigma) supplemented with 2 mM L-glutamine (Sigma-Aldrich), 10 µg/ml insulin (Sigma-Aldrich), 100 ng/ml hydrocortisone (Sigma-Aldrich), 0.1% fungizone (Gibco, USA), and 1% antibioticantimycotic (Gibco), and 1% […] (Gibco) at 37°C in 5% CO2.
To induce the telogen in the anagen hair follicle tissue, the test composition was treated with 1 µM dihydrotestosterone (DHT). The medium was replaced every 3 days and cultured for 6 days. The ratio of hair follicle telogen was visually evaluated based on the ratio of hair follicles in which the telogen occurred for 6 days compared to day 0.

hair follicle cells = experiment: Ki67 immunofluorescence staining of cultured scalp tissue (hair follicle cell proliferation); parameters: species or system human; settings: for Ki67 positive cells (%): scalp tissue, 24 hours
Protocol: as §1, §2
After the scalp tissue was treated with the test composition for 24 hours, the obtained tissue was prepared into a frozen block, and frozen sectioned at a thickness of 5 µm using a Cryostat microtome (Leica Biosystems, Germany), and the tissue sections were attached onto Silane-coated slides. Then, in order to stain the tissue sections and photograph the cross sections, the OCT compound was removed, a primary antibody specifically binding to Ki67 (Anti-Ki67 antibody: ab15580; abcam) was attached, and a fluorescently labeled secondary antibody specifically binding to this primary antibody (Goat pAb to Rb IgG (H+L): a11012; Invitrogen) was attached. Finally, the tissues were fixed with a fixative containing blue fluorescent DAPI (VECTASHIELD® mounting medium with DAPI; Vector laboratories) that stains the cell nucleus, and then images were taken at 100x magnification using a fluorescence microscope (M2; Zeiss). The percentage of Ki67-expressing cells among the total cells labeled with DAPI was measured from the captured images, and a higher value means a higher number of Ki67-expressing cells.

[1] = Cell viability (WST / CCK-8 absorbance at 450 nm); format: cell-based, Human; settings: human, follicle dermal papilla cells, 24 hours
Protocol: (§3) Human follicle dermal papilla cells (PromoCell GmbH) were cultured in human follicle dermal papilla cells growth medium(PromoCell GmbH) supplemented with fetal calf serum(FCS), bovine pituitary extract(BPE), basic fibroblast growth factor(bFGF), and insulin at 37°C and 5% CO2.
(§4) […] WST substrate solution (high sensitivity water soluble tetrazolium salt, CCK-8, DOJINDO) was then added to the medium, and cultured at 37°C for 2 hours.
(§5) During the culture, a […] formazan was produced by the reaction between WST and intracellular dehydrogenase, and the absorbance (OD, wavelength 450 nm) was measured. The cell viability was calculated according to the following Equation 1 below, and the results are shown in Table 1 below. [formula]
(§6) In Equation 1, the 'experimental group' is the group treated with an aqueous solution containing 3HP; the 'control group' is the medium containing only the WST substrate; and the 'negative control group' is the group in which a medium containing WST substrate was treated with an aqueous solution of 0% 3HP.

[2] = test system: Human follicle dermal papilla cells; experiment: Cell viability (WST / CCK-8 absorbance at 450 nm); format: cell-based; settings: for Human follicle dermal papilla cell viability (%): 24 hours, single runs (Once / Two times / Three times), 1440 min
Protocol: as §3, §4, §5, §6

Srd5α1 = experiment: 5α-reductase gene expression by real-time PCR (relative quantification vs GAPDH); format: cell-based, Human; settings: for mrna remaining at 0.0125 %: 3HP 0.0125 %; for mrna remaining at 0.025 %: 3HP 0.025 %
Protocol: as §3
(§7) The cultured human follicle dermal papilla cells were divided into 5x10^4 cells in a 96-well plate, and when the cells reached 80% or more confluency, they were treated with the 3-hydroxypropionic acid aqueous solution according to Preparation Example 1 at four concentrations (3HP concentrations: 0 wt.%, 0.0125 wt.%, 0.025 wt.%, and 0.05 wt.%), and then cultured for 24 hours. Then, the total RNA in the cells was extracted, and cDNA was synthesized from the extracted RNA. The synthesized cDNA was subjected to real-time polymerase chain reaction. And, the relative quantitative analysis of each gene was performed using GAPDH (one of the house-keeping genes). The relative quantification (RQ) value was calculated according to the following Equation 2. RQ = 2−ΔΔCT; ΔΔCT = ΔCT (Treatment)−ΔCT (Control); ΔCT = CT (Targetgene)−CT (House-keepinggene) [formula]
(§8) In the Equation 2, 'Treatment' is the group treated with 3HP; 'Control' is the group not treated with 3HP; 'Target gene' is Srd5α1 and TGF-β1, and 'House-keeping gene' is GAPDH.

TGF-β1 = TGF-β1 gene expression by real-time PCR (relative quantification vs GAPDH); format: cell-based, Human; settings: for mrna remaining at 0.0125 %: 3HP 0.0125 %; for mrna remaining at 0.025 %: 3HP 0.025 %
Protocol: as §3, §7, §8

[3] = Homo sapiens, 24 h, 24 hours, human follicle dermal papilla cells, Average, read-out: 5α-reductase gene expression level (RQ)
[4] = Homo sapiens, 24 h, 24 hours, human follicle dermal papilla cells, single runs (Once / Two times / Three times), read-out: 5α-reductase gene expression level (RQ)
[5] = Homo sapiens, 24 h, 24 hours, human follicle dermal papilla cells, Average, read-out: TGF-β1 gene expression level (RQ)
[6] = Homo sapiens, 24 h, 24 hours, human follicle dermal papilla cells, single runs (Once / Two times / Three times), read-out: TGF-β1 gene expression level (RQ)

SMILES: O=C(O)CCCC[C@@H]1SC[C@@H]2NC(=O)N[C@@H]21 [Biotin, reference compound]
- Telogen ratio (%) (human hair follicles; DHT + 2 ng/ml Biotin): 10.000%
- Ki67 positive cells (%) (hair follicle cells; 2 ng/ml Biotin): 44.631%

SMILES: C[C@]12CCC(=O)C[C@@H]1CC[C@@H]1[C@@H]2CC[C@]2(C)[C@@H](O)CC[C@@H]12 [DHT, dihydrotestosterone, reference compound]
- Telogen ratio (%) (human hair follicles; 1 µM DHT alone (DHT control group)): 40.000%

SMILES: O=C(O)CCO [Example 3HP, 3-hydroxypropionic acid]
- viability at 24 h ([1]; 3HP 0.0125 %, Average): 92.6%
- viability at 24 h ([1]; 3HP 0.0125 %, single runs (Once / Two times / Three times)): 90.8%
- viability at 24 h ([1]; 3HP 0.025 %, Average): 86.7%
- viability at 24 h ([1]; 3HP 0.025 %, single runs (Once / Two times / Three times)): 86.6%
- viability at 24 h ([1]; 3HP 0.05 %, Average): 85.8%
- viability at 24 h ([1]; 3HP 0.05 %, single runs (Once / Two times / Three times)): 86.5%
- viability at 24 h ([1]; 3HP 0.1%, Average): 75.3%
- viability at 24 h ([1]; 3HP 0.1%, single runs (Once / Two times / Three times)): 77.5%
- Human follicle dermal papilla cell viability (%) ([2]; 3HP 0.0125 %): 92.037% and 95.062%
- Human follicle dermal papilla cell viability (%) ([2]; 3HP 0.025 %): 84.153% and 89.275%
- Human follicle dermal papilla cell viability (%) ([2]; 3HP 0.05 %): 86.027% and 85.031%
- Human follicle dermal papilla cell viability (%) ([2]; 3HP 0.1%): 72.756% and 75.694%
- cell viability ([2]; under the treatment concentrations of Table 2, result in words): high
- mrna remaining at 0.0125 % (Srd5α1; [3]): 86.6%
- mrna remaining at 0.0125 % (Srd5α1; [4]): 85.6%
- mrna remaining at 0.025 % (Srd5α1; [3]): 88.8%
- mrna remaining at 0.025 % (Srd5α1; [4]): 87.1%
- mrna remaining at 0.05 % (Srd5α1; Homo sapiens, 24 h, 3HP 0.05 %, 24 hours, human follicle dermal papilla cells, Average, read-out: 5α-reductase gene expression level (RQ)): 127%
- expression of the 5α-reductase gene (Srd5α1; under the treatment concentration of Table 3, result in words): significantly inhibited
- mrna remaining at 0.0125 % (TGF-β1; [5]): 80.2%
- mrna remaining at 0.0125 % (TGF-β1; [6]): 75.6%
- mrna remaining at 0.025 % (TGF-β1; [5]): 69.4%
- mrna remaining at 0.025 % (TGF-β1; [6]): 70.4%
- mrna remaining at 0.05 % (TGF-β1; Homo sapiens, 24 h, 3HP 0.05 %, 24 hours, human follicle dermal papilla cells, Average, read-out: TGF-β1 gene expression level (RQ)): 130%
- expression of the TGF-β1 gene (TGF-β1; under the treatment concentration of Table 4, result in words): significantly inhibited
- hair follicle telogen ratio (human hair follicles; 0.1%, 0.5%, and 1.0% 3HP compared to the DHT control group, result in words): significantly decreased
- Telogen ratio (%) (human hair follicles; DHT + 0.1% 3HP): 6.250%
- Telogen ratio (%) (human hair follicles; DHT + 0.5% 3HP): 0.000%
- Telogen ratio (%) (human hair follicles; DHT + 1.0% 3HP): 0.000%
- proliferation effect of hair follicle cells (hair follicle cells; 0.1% 3HP compared to the negative control group, Ki67 immunofluorescence staining, result in words): significantly increased
- Ki67 positive cells (%) (hair follicle cells; 0.1% 3HP): 48.745%

SMILES: CC(C)(C)NC(=O)[C@H]1CC[C@H]2[C@@H]3CC[C@H]4NC(=O)C=C[C@]4(C)[C@H]3CC[C@]12C [Finasteride, reference compound]
- Telogen ratio (%) (human hair follicles; DHT + 0.5 mM Finasteride): 0.000%

SMILES: Nc1cc(N2CCCCC2)nc(N)[n+]1[O-] [Minoxidil, reference compound]
- Ki67 positive cells (%) (hair follicle cells; 0.1 mM Minoxidil): 47.187%

Source: patent EP4684783A1, “COSMETIC COMPOSITION FOR PREVENTING, ALLEVIATING, OR AMELIORATING HAIR LOSS” (LG Chem, Ltd., priority 2023, dated 2025)
